The record followed here is US20240376114A1, “NUCLEAR TRANSPORT MODULATORS AND USES THEREOF” (Karyopharm Therapeutics Inc., priority 2011, published 2024).

One may read the EC50 as the concentration at which the effect is half-maximal. A word on the pEC50: it is the negative decadic logarithm of the EC50, by convention in mol/L. One may read the Kp as the ratio of the level in a tissue or fluid to that in plasma or blood.

pEC50: −log10 of the molar value. Read-outs that look alike come from different tables or passages of the source. A value given as a limit tells only on which side of the number the result lay.

Series [1] is described as follows: CellTiter 96 AQueous One Solution (MTS) cell proliferation assay. As to conditions: human, MM.1S multiple myeloma cells; MM.1S cells, 72 h treatment; read-out: Cytotoxicity [EC50]. In kind it is cell-based. The source says: (§1) The CellTiter 96® AQueous One Solution cell proliferation assay (Promega) was used on MM.1S multiple myeloma cell line to study the cytotoxic and cytostatic properties of the compounds. The assay is based on the cleavage of the tetrazolium salt, MTS, in the presence of an electron-coupling reagent PES (phenazine ethosulfate). The MTS tetrazolium compound is bioreduced by cells into a colored formazan product that is soluble in tissue culture medium. This conversion is presumably accomplished by NADPH or NADH produced by dehydrogenase enzymes in metabolically active cells. Assays are performed by adding a small amount of the CellTiter 96® AQueous One solution reagent directly to culture wells, incubating for 1-4 hours and then recording the absorbance at 490 nm with a 96-well plate reader.
(§2) The cells were seeded at 5×10^3 to 1.5×10^4 cells (depending on cell type) in each well of a 96-well plate in 100 μL of fresh culture medium and adherent cells were allowed to attach overnight. The stock solutions of the compounds were diluted in cell culture medium to obtain eight concentrations of each drug, ranging from 1 nM to 30 μM and DMSO at less than 1% v/v was used as a negative control. The resulting drug solutions were transferred onto the cells. After 72 h of treatment, 20 μl of CellTiter 96® AQueous reagent was added into each well of the 96-well assay plates and the plate was incubated at 37° C. for 1-4 hours in a humidified, 5% CO2 atmosphere. Then the absorbance of each well was recorded at 490 nm using a 96-well plate reader. In most cases, the assay was performed in triplicate and the results were presented as half maximal inhibitory concentration (IC50). Optical density versus compound concentration was plotted and analyzed using non-linear regression equations (IDBS XLfit) and the IC50 for each compound was calculated.

Series [2] in a line: Pharmacokinetic (PK) assay, plasma AUC. In kind it is in vivo. The note with it: mouse, PO. The protocol:
Pharmacokinetics (PK) play an increasing role in drug discovery and development. Pharmacokinetics is the quantitative study of the time course of drug absorption, distribution, metabolism and/or excretion. When a drug is administered, it distributes rapidly from its administration site into the systemic blood circulation. One measure of the extent of a therapeutic agent's distribution is the area under the plasma concentration-time curve (AUC), calculated to the last measured concentration (AUCt) and extrapolated to infinity (AUCinf). AUC is thus a useful metric to quantitate drug exposure. AUC. Blood was collected from mice (N=3) to contribute to the total of 10 time points (pre-dose, 5 min, 15 min, 30 min, 1 hour, 2 hours, 4 hours, 8 hours, 12 hours and 24 hours post dose). Mice were bled on a rotating basis, each mouse contributing 3 time points to the blood collection. At the designated time points, animals were anaesthetized under isoflurane, and approximately 110 μL of blood per time point was collected via retro-orbital puncture into pre-cooled K2EDTA (anti-coagulant) tubes. Blood samples were put on wet ice and centrifuged (2000 g, 5 min at 4° C.) to obtain plasma within 30 minutes of sample collection. All samples were stored frozen at approximately −80° C. until analysis. Prior to analysis, samples were mixed with internal standard (dexamethasone) in acetonitrile, vortexed, centrifuged, and supernatant was injected for analysis. Concentration of compounds in plasma was determined using LC-MS-MS instrumentation (API 4000, Triple Quadruple with electrospray ionization; Acuity Ultra Performance Liquid Chromatography column C18, with MeOH and formic acid as organic solvents). AUC values were calculated using WinNonlin Professional 6.2 software package, non-compartmental pharmacokinetic model NCA200.

Series [3] concerns MM.1S multiple myeloma cell line. In words: CellTiter 96 AQueous One Solution (MTS) cell proliferation assay. The format is cell-based.
Description: as §1, §2

Series [4] in a line: Brain to plasma (B:P) ratio determination. In kind it is in vivo. The note with it: brain and plasma; mouse, PO at 10 mg/kg, 2 hours post-dose. The text has this:
The brain to plasma (B:P) ratio is one method of quantifying the relative distribution of a therapeutic agent in brain tissue to that in circulation and, as such, provides one indication of the brain penetration of a given therapeutic agent. A high brain to plasma ratio is preferred when targeting diseases localized in the central nervous system (CNS), including the brain and the cerebrospinal fluid. However, a lower brain to plasma ratio is generally preferable for non-CNS therapeutic agents to minimize brain penetration and avoid potential side effects caused by unwanted accumulation of the therapeutic agents in the brain and CNS tissue.
Brain to Plasma (B:P) Ratio. […] Following collection, brain tissue was rinsed with cold saline, dried on filter paper, weighed and snap-frozen by placing on dry ice. All samples were stored frozen at approximately −80° C. until analysis. […] Plasma samples were treated with the identical method (except homogenization step) and the concentration of compound in each matrix was calculated based on generated standard curves.

The mark [5] stands for this setting: 10 mg/kg, 10 mpk, read-out: AUCInf hr * ng/mL (mouse, PO, 10 mpk).
The mark [6] stands for this setting: MM.1S cells, 72 h treatment, read-out: Cytotoxicity [EC50].
The mark [7] stands for this setting: 5 mg/kg, 5 mpk, read-out: AUCInf hr * ng/mL (mouse, PO), tested at 5 mpk.

Turning to `O=C(/C=C\n1cnc(-c2cc(C(F)(F)F)cc(C(F)(F)F)c2)n1)N1CC(F)C1` [Example 7, (Z)-3-(3-(3,5-bis(trifluoromethyl)phenyl)-1H-1,2,4-triazol-1-yl)-1-(3-fluoroazetidin-1-yl)prop-2-en-1-one], the concentration giving a half-maximal response (EC50) at 72 h in series [1] is under 1000 nM. Moreover, in series [2] (setting [5]), the AUC(0-inf) is 2510 ng·h/mL.
Take `O=C(/C=C\n1cnc(-c2cc(C(F)(F)F)cc(C(F)(F)F)c2)n1)NNc1cnccn1` [Compound 70]: in series [1], the concentration giving a half-maximal response (EC50) at 72 h is under 1000 nM. In addition, in series [2] (setting [5]), the AUC(0-inf) was determined as 10100 ng·h/mL.
On to `O=C(/C=C\n1cnc(-c2cc(F)cc(C(F)(F)F)c2)n1)N1CC(F)(F)C1` [Example 2, (Z)-1-(3,3-difluoroazetidin-1-yl)-3-(3-(3-fluoro-5-(trifluoromethyl)phenyl)-1H-1,2,4-triazol-1-yl)prop-2-en-1-one], for which the EC50 at 72 h in series [1] was under 1000 nM. For the same molecule, the AUC(0-inf) in series [2] (setting [5]) was determined as 396 ng·h/mL.
Take “(Z)-3-(3-(3,5-bis(trifluoromethyl)phenyl)-1H-1,2,4-triazole-1-yl)-N-(1-(5-methylpyrimidine-2-yl)ethyl)acrylamide [Compound 21]”: the pEC50 in series [3] (setting [6]) is 5.00 to 6.00.
With `CC1(O)CN(C(=O)/C=C\n2cnc(-c3cc(C(F)(F)F)cc(C(F)(F)F)c3)n2)C1` [Example 8, (Z)-3-(3-(3,5-bis(trifluoromethyl)phenyl)-1H-1,2,4-triazol-1-yl)-1-(3-hydroxy-3-methylazetidin-1-yl)prop-2-en-1-one], the EC50 at 72 h in series [1] was under 1000 nM. The AUC(0-inf) in series [2] (setting [7]) amounted to 9050 ng·h/mL. In addition, the Kp at 2 h in series [4] was 3.16.
Taken in the same sequence, the figures for `NCC1(F)CN(C(=O)/C=C\n2cnc(-c3cc(C(F)(F)F)cc(C(F)(F)F)c3)n2)C1` [Compound 60, (Z)-1-(3-(aminomethyl)-3-fluoroazetidin-1-yl)-3-(3-(3,5-bis(trifluoromethyl)phenyl)-1H-1,2,4-triazol-1-yl)prop-2-en-1-one] were under 1000 nM, 1240 ng·h/mL and 13.3.
For “(Z)-3-(2-(3,5-bis(trifluoromethyl)phenyl)-1H-pyrrol-1-yl)-1-(3,3-difluoroazetidin-1-yl)prop-2-en-1-one [Compound 65]”, the pEC50 in series [3] (setting [6]) was under 5.00.
In the case of `CN1CCCC(CNC(=O)/C=C\n2cnc(-c3cc(C(F)(F)F)cc(C(F)(F)F)c3)n2)C1` (stereo not shown) [Compound 27, (Z)-3-(3-(3,5-bis(trifluoromethyl)phenyl)-1H-1,2,4-triazol-1-yl)-N-((1-methylpiperidin-3-yl)methyl)acrylamide], the EC50 at 72 h in series [1] is under 1000 nM.
Consider `O=C(/C=C\n1cnc(-c2cc(C(F)(F)F)c(Cl)c(C(F)(F)F)c2)n1)N1CC(F)(F)C1` [Compound 59, (Z)-3-(3-(4-chloro-3,5-bis(trifluoromethyl)phenyl)-1H-1,2,4-triazol-1-yl)-1-(3,3-difluoroazetidin-1-yl)prop-2-en-1-one], for which, in series [1], the EC50 at 72 h is under 1000 nM.
As to `O=C(/C=C\n1cnc(-c2cc(C(F)(F)F)cc(C(F)(F)F)c2)n1)N1CCC(O)CC1` [Compound 66, (Z)-3-(3-(3,5-bis(trifluoromethyl)phenyl)-1H-1,2,4-triazol-1-yl)-1-(4-hydroxypiperidin-1-yl)prop-2-en-1-one], the 50% effective concentration (EC50) at 72 h in series [1] was under 1000 nM.
`O=C(/C=C\n1cnc(-c2cc(C(F)(F)F)cc(C(F)(F)F)c2)n1)N1CCC1` [Compound 23, (Z)-1-(azetidin-1-yl)-3-(3-(3,5-bis (trifluoromethyl)phenyl)-1H-1,2,4-triazol-1-yl) prop-2-en-1-one]: the EC50 at 72 h in series [1] is under 1000 nM. In addition, in series [2] (setting [5]), the AUC(0-inf) was 521 ng·h/mL.
In the case of `O=C1CC(c2cc(C(F)(F)F)cc(C(F)(F)F)c2)CN1/C=C\C(=O)N1CC(F)(F)C1` (stereo not shown) [Compound 64, (Z)-4-(3,5-bis(trifluoromethyl)phenyl)-1-(3-(3,3-difluoroazetidin-1-yl)-3-oxoprop-1-enyl)pyrrolidin-2-one], in series [1], the concentration for a half-maximal effect (EC50) at 72 h was over 10000 nM.
As for `O=C1CC(c2cc(C(F)(F)F)cc(C(F)(F)F)c2)CN1/C=C/C(=O)N1CC(F)(F)C1` (stereo not shown) [Compound 44, (E)-4-(3,5-bis(trifluoromethyl)phenyl)-1-(3-(3,3-difluoroazetidin-1-yl)-3-oxoprop-1-enyl)pyrrolidin-2-one], the EC50 at 72 h in series [1] was over 10000 nM.
Turning to `O=C(/C=C\n1cnc(-c2cc(C(F)(F)F)cc(C(F)(F)F)c2)n1)N1CCCC(F)(F)C1` [Example 5, (Z)-3-(3-(3,5-bis(trifluoromethyl)phenyl)-1H-1,2,4-triazol-1-yl)-1-(3,3-difluoropiperidin-1-yl)prop-2-en-1-one], the EC50 at 72 h in series [1] was 1000 to 10000 nM.
As for “(E)-3-(6-(3,5-bis(trifluoromethyl)phenyl)pyridin-2-yl)-1-(3,3-difluoroazetidin-1-yl)prop-2-en-1-one [Compound 15]”, the pEC50 in series [3] is under 5.00.
Regarding `O=C(/C=C\c1n[nH]c(-c2cc(C(F)(F)F)cc(C(F)(F)F)c2)n1)N1CC(F)(F)C1` [Compound 12, (Z)-3-(5-(3,5-bis(trifluoromethyl)phenyl)-4H-1,2,4-triazol-3-yl)-1-(3,3-difluoroazetidin-1-yl)prop-2-en-1-one], the EC50 at 72 h in series [1] was in the range of 1000 to 10000 nM.
In the case of `O=C(/C=C\n1cnc(-c2cc(C(F)(F)F)cc(C(F)(F)F)c2)n1)N1CC(F)(C(=O)O)C1` [Compound 62, (Z)-1-(3-(3-(3,5-bis(trifluoromethyl)phenyl)-1H-1,2,4-triazol-1-yl)acryloyl)-3-fluoroazetidine-3-carboxylic acid], in series [1], the concentration giving a half-maximal response (EC50) at 72 h lay within 1000 to 10000 nM.
`CN(C)CC1CN(C(=O)/C=C\n2cnc(-c3cc(C(F)(F)F)cc(C(F)(F)F)c3)n2)C1` [Compound 25, (Z)-3-(3-(3,5-bis(trifluoromethyl)phenyl)-1H-1,2,4-triazol-1-yl)-1-(3-((dimethylamino)methyl)azetidin-1-yl)prop-2-en-1-one]: in series [1], the half-maximal effective concentration (EC50) at 72 h is under 1000 nM. Moreover, in series [2] (setting [5]), the AUC(0-inf) came out at 2640 ng·h/mL.
Regarding `O=C(/C=C\n1cnc(-c2cc(C(F)(F)F)cc(C(F)(F)F)c2)n1)NCc1cnco1` [Example 11, (Z)-3-(3-(3,5-bis(trifluoromethyl)phenyl)-1H-1,2,4-triazol-1-yl)-N-(oxazol-5-ylmethyl)acrylamide], the 50% effective concentration (EC50) at 72 h in series [1] was under 1000 nM. Further, in series [2] (setting [7]), the AUC(0-inf) was 3080 ng·h/mL.
For the molecule `O=C(/C=C\n1cnc(-c2cc(C(F)(F)F)cc(C(F)(F)F)c2)n1)NNc1ccccn1` [Compound 71], the EC50 at 72 h in series [1] is under 1000 nM. Also, the AUC(0-inf) in series [2] (setting [5]) stood at 10800 ng·h/mL. Moreover, in series [4], the concentration ratio (Kp) at 2 h stood at 1.8.
Regarding `CN(Cc1cncnc1)C(=O)/C=C\n1cnc(-c2cc(C(F)(F)F)cc(C(F)(F)F)c2)n1` [Compound 17, (Z)-3-(3-(3,5-bis(trifluoromethyl)phenyl)-1H-1,2,4-triazol-1-yl)-N-methyl-N-(pyrimidin-5-ylmethyl)acrylamide], in series [1], the half-maximal effective concentration (EC50) at 72 h fell in the range of 1000 to 10000 nM.
The same measure, in the same setting: next, `CC(NC(=O)/C=C\n1cnc(-c2cc(C(F)(F)F)cc(C(F)(F)F)c2)n1)c1cnccn1` (stereo not shown) [Compound 29, (Z)-3-(3-(3,5-bis(trifluoromethyl)phenyl)-1H-1,2,4-triazol-1-yl)-N-(1-(pyrazin-2-yl)ethyl)acrylamide]: 1000 to 10000 nM.
